The text below walks through data of ChEMBL document CHEMBL1141645, “Synthesis and antimycobacterial evaluation of new trans-cinnamic acid hydrazide derivatives” (2008).

In brackets after ≈: the same amount, converted by molar mass. Bounds are passed on as bounds.

This test relates to Mycobacterium tuberculosis. The test can be described thus: Antimicrobial activity against Mycobacterium tuberculosis ATCC […] by Almar blue assay. In kind it is functional.
The compound `O=C(/C=C/c1ccc([N+](=O)[O-])cc1)NNC(=O)c1ccncc1` came in with an MIC of 3.12 µg/mL (≈ 9.99 µM).
The result for `O=C(/C=C/c1ccccc1)NNC(=O)c1ccccc1` reads 50 µg/mL (≈ 188 µM).
`NNC(=O)c1ccncc1` [ISONIAZID] showed an MIC of 0.2 µg/mL (≈ 1.46 µM).
The result for `O=C(/C=C/c1ccc([N+](=O)[O-])cc1)NNC(=O)c1ccccc1` reads above 100 µg/mL; that for `O=C(/C=C/c1ccccc1)NNC(=O)c1ccncc1`, 3.12 µg/mL (≈ 11.7 µM).
For `O=C(/C=C/c1ccc(Cl)cc1Cl)NNC(=O)c1ccncc1`, the minimum inhibitory concentration (MIC) was above 100 µg/mL.
The result for `O=C(/C=C/c1ccc(Cl)cc1Cl)NNC(=O)c1ccccc1` reads above 100 µg/mL.
The result for `COc1ccc(/C=C/C(=O)NNC(=O)c2ccncc2)cc1` reads 3.12 µg/mL (≈ 10.5 µM).
The result for `COc1ccc(/C=C/C(=O)NNC(=O)c2ccccc2)cc1` reads 12.5 µg/mL (≈ 42.2 µM).
Compound `O=C(/C=C/c1ccc2c(c1)OCO2)NNC(=O)c1ccccc1` came in with an MIC of 25 µg/mL (≈ 80.6 µM).
The result for `O=C(/C=C/c1ccc2c(c1)OCO2)NNC(=O)c1ccncc1` reads 3.12 µg/mL (≈ 10 µM).
